Data reported in patent publication US20250281491A1, “DUAL FUNCTIONING IMMUNE MODULATING COMPOUNDS, FORMULATIONS, AND USES THEREOF” (THE REGENTS OF THE UNIVERSITY OF MICHIGAN, priority 2022, published 2025).

Columns and labels:
PI3K β = target: T1, PI3K β (Homo sapiens, UniProt P42338); assay: PI3K inhibition assay (BPS Bioscience kit, ADP-Glo luminescence); assay type: biochemical; conditions: for IC50: purified enzyme
T1 construct: purchased BPS Bioscience (San Diego, CA, USA)
Method: (§1) The IC50 of compounds to inhibit different PI3K isoforms were calculated using Prism 8.
(§2) PI3Kα, PI3K β, PI3Kγ, and PI3Kδ binding assay kits were obtained from BPS Bioscience (San Diego, CA, USA). The assays were conducted according to manufacturer's protocols in 96-well microplates. Briefly, 5 μL PI3K lipid substrate was added to all wells. […] 10 μL of PI3Ka (0.5 ng/μL, PI3K β 4 ng/μL, PI3Kγ 4 ng/μL, or PI3Kδ 13 ng/μL) was added to initiate reaction. The plate was carefully shaken, and the reaction mixture was incubated at 30° C. for 40 minutes. Then 25 μL ADP-Glo reagent (Promega, Madison, WI, USA) was added to each well and the reactions were performed in darkness for 45 minutes. Finally, 50 μL of kinase detection reagent (Promega, Madison, WI, USA) was added to each well and the reactions were performed in darkness for 30 minutes. The luminescence of the reaction mixture was read on a Synergy 2 microplate reader (Biotek).

PI3Kα = target: T2, PI3Kα (Homo sapiens, UniProt P42336); assay: as above; assay type: biochemical; conditions: for IC50: purified enzyme
T2 construct: purchased BPS Bioscience (San Diego, CA, USA)
T2 sequence (P42336 whole entry): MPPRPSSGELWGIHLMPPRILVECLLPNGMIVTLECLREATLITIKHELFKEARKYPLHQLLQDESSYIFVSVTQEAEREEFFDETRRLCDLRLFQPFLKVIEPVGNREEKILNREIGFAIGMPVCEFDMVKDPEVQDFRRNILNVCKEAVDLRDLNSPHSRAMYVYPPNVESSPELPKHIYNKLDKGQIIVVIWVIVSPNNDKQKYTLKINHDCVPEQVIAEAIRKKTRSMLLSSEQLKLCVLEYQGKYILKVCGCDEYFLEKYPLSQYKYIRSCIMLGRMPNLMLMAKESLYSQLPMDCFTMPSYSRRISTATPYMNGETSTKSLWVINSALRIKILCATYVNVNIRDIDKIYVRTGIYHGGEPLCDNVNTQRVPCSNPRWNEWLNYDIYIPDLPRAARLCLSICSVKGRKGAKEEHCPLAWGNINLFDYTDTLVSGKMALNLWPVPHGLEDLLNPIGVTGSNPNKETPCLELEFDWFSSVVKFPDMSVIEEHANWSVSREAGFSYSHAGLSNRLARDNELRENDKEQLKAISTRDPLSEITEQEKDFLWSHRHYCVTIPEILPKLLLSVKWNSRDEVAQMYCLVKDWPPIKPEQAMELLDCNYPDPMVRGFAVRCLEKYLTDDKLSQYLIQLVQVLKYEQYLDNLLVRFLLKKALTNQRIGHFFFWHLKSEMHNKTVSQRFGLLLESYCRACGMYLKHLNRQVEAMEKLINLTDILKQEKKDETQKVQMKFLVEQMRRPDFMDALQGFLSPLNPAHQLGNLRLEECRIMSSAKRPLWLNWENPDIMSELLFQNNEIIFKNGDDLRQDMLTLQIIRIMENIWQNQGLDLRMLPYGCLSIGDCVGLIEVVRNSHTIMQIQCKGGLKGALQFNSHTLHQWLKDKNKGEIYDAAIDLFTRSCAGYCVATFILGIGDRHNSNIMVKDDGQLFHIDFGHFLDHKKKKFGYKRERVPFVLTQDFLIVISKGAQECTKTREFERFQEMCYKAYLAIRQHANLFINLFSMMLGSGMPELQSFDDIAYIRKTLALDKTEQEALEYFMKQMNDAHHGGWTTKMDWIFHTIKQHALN
T2 sequence (P27986 whole entry partner): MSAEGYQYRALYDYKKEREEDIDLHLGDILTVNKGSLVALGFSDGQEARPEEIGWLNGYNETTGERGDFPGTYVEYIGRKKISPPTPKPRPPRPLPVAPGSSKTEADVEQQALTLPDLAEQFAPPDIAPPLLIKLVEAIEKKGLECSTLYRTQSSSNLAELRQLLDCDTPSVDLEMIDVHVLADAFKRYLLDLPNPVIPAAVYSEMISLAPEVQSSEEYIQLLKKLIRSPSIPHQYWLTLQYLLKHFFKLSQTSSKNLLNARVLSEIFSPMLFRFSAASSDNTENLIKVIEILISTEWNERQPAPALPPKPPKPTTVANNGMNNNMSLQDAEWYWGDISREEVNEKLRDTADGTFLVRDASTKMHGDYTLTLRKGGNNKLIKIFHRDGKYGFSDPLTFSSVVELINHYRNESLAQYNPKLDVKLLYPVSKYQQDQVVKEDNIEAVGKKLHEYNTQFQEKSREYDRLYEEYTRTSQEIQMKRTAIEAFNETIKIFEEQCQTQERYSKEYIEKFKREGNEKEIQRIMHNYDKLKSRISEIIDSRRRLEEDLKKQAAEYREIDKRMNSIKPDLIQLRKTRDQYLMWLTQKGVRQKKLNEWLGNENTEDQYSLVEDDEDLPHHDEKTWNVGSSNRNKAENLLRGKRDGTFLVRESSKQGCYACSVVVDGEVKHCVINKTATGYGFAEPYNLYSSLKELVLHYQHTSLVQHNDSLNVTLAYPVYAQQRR
Method: as §1, §2

PI3Kγ = target: T3, PI3Kγ (Homo sapiens, UniProt P48736); assay: as above; assay type: biochemical; conditions: for IC50: purified enzyme
T3 construct: purchased BPS Bioscience (San Diego, CA, USA)
T3 sequence (P48736 whole entry): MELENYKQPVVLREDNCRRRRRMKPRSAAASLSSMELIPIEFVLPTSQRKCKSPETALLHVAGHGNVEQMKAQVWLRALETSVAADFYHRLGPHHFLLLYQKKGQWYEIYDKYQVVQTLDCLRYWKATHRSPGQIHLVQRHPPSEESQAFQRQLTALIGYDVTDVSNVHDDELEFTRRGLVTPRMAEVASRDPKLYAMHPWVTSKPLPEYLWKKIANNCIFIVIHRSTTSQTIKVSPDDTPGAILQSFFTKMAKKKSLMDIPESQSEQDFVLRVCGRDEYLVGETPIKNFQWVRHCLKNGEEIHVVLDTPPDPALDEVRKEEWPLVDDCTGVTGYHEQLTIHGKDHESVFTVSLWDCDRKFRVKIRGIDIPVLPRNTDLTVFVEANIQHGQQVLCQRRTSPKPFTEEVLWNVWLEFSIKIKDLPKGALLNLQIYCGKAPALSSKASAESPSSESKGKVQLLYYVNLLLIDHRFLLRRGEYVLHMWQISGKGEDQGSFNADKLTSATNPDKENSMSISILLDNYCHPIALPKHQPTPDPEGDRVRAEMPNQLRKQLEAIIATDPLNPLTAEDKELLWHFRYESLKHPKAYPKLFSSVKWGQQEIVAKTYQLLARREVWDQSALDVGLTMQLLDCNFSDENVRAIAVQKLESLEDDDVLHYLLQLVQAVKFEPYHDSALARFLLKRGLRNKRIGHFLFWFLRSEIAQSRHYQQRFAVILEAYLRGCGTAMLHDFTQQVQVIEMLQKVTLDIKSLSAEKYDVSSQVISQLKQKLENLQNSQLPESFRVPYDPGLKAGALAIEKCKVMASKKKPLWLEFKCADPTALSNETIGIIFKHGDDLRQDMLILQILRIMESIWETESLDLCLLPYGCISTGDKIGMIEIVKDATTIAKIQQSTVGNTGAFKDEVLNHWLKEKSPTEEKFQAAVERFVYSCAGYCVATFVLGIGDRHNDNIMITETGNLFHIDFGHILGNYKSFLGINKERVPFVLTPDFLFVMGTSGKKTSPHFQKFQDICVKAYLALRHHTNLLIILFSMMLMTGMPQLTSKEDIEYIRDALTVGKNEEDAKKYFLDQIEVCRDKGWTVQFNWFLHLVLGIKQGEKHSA
Method: as §1, §2

PI3Kδ = target: T4, PI3Kδ (Homo sapiens, UniProt O00329); assay: as above; assay type: biochemical; conditions: for IC50: purified enzyme
T4 construct: purchased BPS Bioscience (San Diego, CA, USA)
T4 sequence (O00329 whole entry): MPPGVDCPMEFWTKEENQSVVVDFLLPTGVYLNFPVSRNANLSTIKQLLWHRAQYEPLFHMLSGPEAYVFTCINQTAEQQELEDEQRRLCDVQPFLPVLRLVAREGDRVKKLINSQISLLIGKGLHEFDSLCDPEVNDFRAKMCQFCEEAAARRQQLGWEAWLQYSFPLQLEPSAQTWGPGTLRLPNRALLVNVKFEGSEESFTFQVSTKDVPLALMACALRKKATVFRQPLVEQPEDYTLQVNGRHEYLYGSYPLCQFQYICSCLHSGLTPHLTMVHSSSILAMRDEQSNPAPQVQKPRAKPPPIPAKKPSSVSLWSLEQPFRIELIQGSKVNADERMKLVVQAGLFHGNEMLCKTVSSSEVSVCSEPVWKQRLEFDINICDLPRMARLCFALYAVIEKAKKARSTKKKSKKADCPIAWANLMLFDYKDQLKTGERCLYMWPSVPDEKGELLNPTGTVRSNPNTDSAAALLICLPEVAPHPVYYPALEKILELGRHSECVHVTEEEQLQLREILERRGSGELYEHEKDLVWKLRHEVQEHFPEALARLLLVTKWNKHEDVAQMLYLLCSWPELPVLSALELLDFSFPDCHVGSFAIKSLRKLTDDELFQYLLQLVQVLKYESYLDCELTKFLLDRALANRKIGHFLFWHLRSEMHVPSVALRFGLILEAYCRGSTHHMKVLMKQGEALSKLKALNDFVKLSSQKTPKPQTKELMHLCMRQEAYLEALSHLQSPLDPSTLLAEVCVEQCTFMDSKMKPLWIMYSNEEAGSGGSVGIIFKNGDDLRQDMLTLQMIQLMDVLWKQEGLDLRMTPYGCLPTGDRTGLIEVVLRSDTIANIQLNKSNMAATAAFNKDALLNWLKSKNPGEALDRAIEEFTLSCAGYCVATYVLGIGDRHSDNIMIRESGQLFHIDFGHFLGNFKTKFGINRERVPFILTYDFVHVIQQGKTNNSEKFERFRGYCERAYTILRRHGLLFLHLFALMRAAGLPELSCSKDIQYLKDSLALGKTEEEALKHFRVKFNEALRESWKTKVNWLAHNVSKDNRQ
T4 sequence (P27986 whole entry partner): as the sequence (P27986 whole entry partner) above
Method: as §1, §2

STING = STING activation in THP-1 ISG Blue cells (QUANTI-Blue, OD 655); assay type: cell-based; conditions: 24 hours, FIG. 1
Method: FIG. 1 is a graph of STING activation for different concentrations of compounds as determined by incubating with THP-1 ISG Blue cells for 24 hours, mixing with ‘QUANTI-Blue’ solution and measuring OD 655.
FIG. 2 is a graph of STING activation for different concentrations of DMA01-166 as determined by incubating with THP-1 ISG Blue cells for 24 hours, mixing with ‘QUANTI-Blue’ solution and measuring OD 655.
FIG. 3 is a graph of STING activation for different concentrations of MSA-2 as determined by incubating with THP-1 ISG Blue cells for 24 hours, mixing with ‘QUANTI-Blue’ solution and measuring OD 655.
THP-1 ISG Blue cells analysis is a standard assay to test STING activation in vitro. […] Different concentrations of DMA01-166 (FIG. 2) and MSA-2 (FIG. 3) were incubated with THP-1 ISG Blue cells for 24 hours.

[1] = tested on: mouse bone marrow derived dendritic cells (BMDCs); assay: BMDC activation, upregulation of CD80 and CD86 by flow cytometry; assay type: cell-based; conditions: 24 hours
Method: FIG. 5 are graphs of BMDC activation as measured based on the upregulation of CD80 and CD86 by flow cytometry for different concentrations of DMA01-166 incubated with mouse bone marrow derived dendritic cells (BMDCs) for 24 hours.
STING activation induces BMDC activation. To test the ability of DMA01-166 in activating BMDC, BMDCs activation was measured based on the upregulation of CD80 and CD86 by flow cytometry. […] Different concentrations of DMA01-166 were incubated with BMDC cells for 24 hours.

[2] = tested on: mouse bone marrow derived dendritic cells (BMDCs); assay: mIFNβ secretion from BMDCs by ELISA; assay type: cell-based; conditions: 24 hours; for mIFNβ secretion: BMDC supernatants, 10 μM, FIG. 6
Method: FIG. 7 a graph of mIFNβ concentrations as measured by ELISA from the supernatants of mouse bone marrow derived dendritic cells (BMDCs) incubated with different concentrations of DMA01-166 for 24 hours.
STING activation in BMDC results in mIFNβ secretion. […] Different concentrations of DMA01-166 (FIG. 7) were incubated with BMDC cells for 24 hours.

[3] = tested on: M2 polarized RAW264.7 cells; assay: M1 macrophage ratio (CD80 and CD86, flow cytometry) from M2 polarized RAW264.7 cells; assay type: cell-based; conditions: 2 days; for M1 macrophage percentage among all the macrophages: 10 μM, FIG. 9
Method: FIG. 10 is a graph of M1 macrophage ratio as determined by measuring CD80 and CD86 as markers for M1 macrophage by flow cytometry from M2 polarized RAW264.7 cells incubated with different concentrations of DMA01-166 for 2 days.
Macrophage polarization effects of the dual functioning NCEs were further tested by first inducing RAW264.7 cells to M2 macrophage, and then treating with different drugs to test the M1 macrophage percentage among all the macrophages.

[4] = tested on: KPC transgenic pancreatic cancer model; assay: In vivo efficacy on KPC transgenic pancreatic cancer model; conditions: FIG. 13
Method: FIG. 13 is a graph of the in vivo efficacy on KPC transgenic pancreatic cancer model of an exemplary albumin nanoformulations of: DMA01-166 (D166) and DMA01-166 plus PD-1 antibody (D166+PD-1) with and without paclitaxel (Nano-P).
The in vivo efficacy of DMA01-166 and its albumin nanoformulation was tested on KPC transgenic model.

[5] = tested on: M2 polarized RAW264.7 cells; assay: TNFα secretion from M2 polarized RAW264.7 cells by ELISA (macrophage polarization); conditions: 10 μM, 2 days, vs M2 control group, FIG. 8

T1 sequence (P42338 whole entry): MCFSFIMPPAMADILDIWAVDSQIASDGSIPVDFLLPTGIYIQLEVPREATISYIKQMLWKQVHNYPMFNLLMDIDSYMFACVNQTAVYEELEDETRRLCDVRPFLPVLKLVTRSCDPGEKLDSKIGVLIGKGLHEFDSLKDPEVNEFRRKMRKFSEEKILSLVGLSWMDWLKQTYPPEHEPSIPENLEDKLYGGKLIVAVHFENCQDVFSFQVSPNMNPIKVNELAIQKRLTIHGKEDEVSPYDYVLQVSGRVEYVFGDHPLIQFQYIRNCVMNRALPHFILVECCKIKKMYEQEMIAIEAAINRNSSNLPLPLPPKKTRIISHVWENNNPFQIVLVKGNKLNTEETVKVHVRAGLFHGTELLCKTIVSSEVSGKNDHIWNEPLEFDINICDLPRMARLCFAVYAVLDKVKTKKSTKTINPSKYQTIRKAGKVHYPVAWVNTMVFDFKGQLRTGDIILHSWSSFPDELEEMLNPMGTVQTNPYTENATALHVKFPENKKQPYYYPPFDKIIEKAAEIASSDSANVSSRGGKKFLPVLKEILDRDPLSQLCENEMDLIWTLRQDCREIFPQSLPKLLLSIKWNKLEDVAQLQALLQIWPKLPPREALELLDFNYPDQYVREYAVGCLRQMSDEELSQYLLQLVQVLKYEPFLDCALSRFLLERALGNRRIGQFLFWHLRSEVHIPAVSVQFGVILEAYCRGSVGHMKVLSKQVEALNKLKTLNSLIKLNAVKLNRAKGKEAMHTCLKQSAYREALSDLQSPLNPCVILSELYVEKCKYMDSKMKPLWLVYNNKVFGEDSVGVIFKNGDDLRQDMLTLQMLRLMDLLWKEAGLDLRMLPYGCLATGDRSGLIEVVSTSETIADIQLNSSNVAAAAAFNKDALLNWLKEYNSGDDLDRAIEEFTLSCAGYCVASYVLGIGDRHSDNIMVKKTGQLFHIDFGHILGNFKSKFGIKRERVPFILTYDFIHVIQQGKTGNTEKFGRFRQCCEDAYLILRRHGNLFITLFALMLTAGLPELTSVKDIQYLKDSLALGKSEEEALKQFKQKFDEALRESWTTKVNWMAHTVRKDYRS
T1 sequence (P27986 whole entry partner): as the sequence (P27986 whole entry partner) above

Row | SMILES | Inhibition of PI3K β (in words) (PI3K β) | IC50 (PI3K β) [nM] | Inhibition of PI3Kα (in words) (PI3Kα) | IC50 (PI3Kα) [nM] | IC50 (PI3Kγ) [nM] | IC50 (PI3Kδ) [nM] | STING activation (interferon signal) (STING) | BMDC activation at different concentrations ([1]; FIG. 5) | mIFNβ secretion [2] | mIFNβ secretion at different concentrations ([2]; BMDC, FIG. 7) | M1 macrophage percentage among all the macrophages [3] | Macrophage polarization (M1 ratio) at different concentrations ([3]; FIG. 10) | Median survival [4] [days] | Inhibition of PI3Kγ (in words) (PI3Kγ) | Inhibition of PI3Kδ (in words) (PI3Kδ) | Macrophage polarization (TNFα secretion) [5] | BMDC activation (upregulation of CD80 and CD86) ([1]; 10 μM, FIG. 4)
1 | COc1cc2cc(C(=O)CCC(=O)OCCn3cc(-c4cccc5cc([C@@H](C)NC(=O)c6c(N)nn7cccnc67)n(-c6ccccc6)c(=O)c45)nn3)sc2cc1OC [DMA01-166, (R)-2-(4-(3-(1-(2-aminopyrazolo[1,5-a]pyrimidine-3-carboxamido)ethyl)-1-oxo-2-phenyl-1,2-dihydroisoquinolin-8-yl)-1H-1,2,3-triazol-1-yl)ethyl 4-(5,6-dimethoxybenzo[b]thiophen-2-yl)-4-oxobutanoate] | no effect | > 10000 | no effect | > 10000 | 349 | 1250 | enhanced interferon signal compared to control and cGAMP group | dose independent BMDC activation effect | higher mIFNβ secretion compared to MSA-2 | dose independent BMDC activation effect | higher percentage of M1 macrophage compared to IPI-549, cGAMP, ADU and MSA-2 | dose independent macrophage polarization effect | 157.5 | – | – | – | –
2 | C[C@H](NC(=O)c1c(N)nn2cccnc12)c1cc2cccc(-c3cn(CCO)nn3)c2c(=O)n1-c1ccccc1 [DMA01-148] | – | 548 | – | 1050 | 0.864 | 15.4 | – | – | – | – | – | – | – | selectively inhibited PI3Kγ, with similar efficacy compared to IPI-549 | – | – | –
3 | C[C@H](NC(=O)c1c(N)nn2cccnc12)c1cc2cccc(-c3cn(CC(=O)O)nn3)c2c(=O)n1-c1ccccc1 [DMA01-143, (S)-2-(4-(3-(1-(2-aminopyrazolo[1,5-a]pyrimidine-3-carboxamido)ethyl)-1-oxo-2-phenyl-1,2-dihydroisoquinolin-8-yl)-1H-1,2,3-triazol-1-yl) acetic acid] | – | 312 | – | 409 | 5.34 | 1.36 | – | – | – | – | – | – | – | inhibited both PI3Kγ and PI3Kδ | inhibited both PI3Kγ and PI3Kδ | – | –
4 | CCCCC/C=C/C/C=C\CCCCCCCC(=O)OCCn1cc(-c2cccc3cc([C@@H](C)NC(=O)c4c(N)nn5cccnc45)n(-c4ccccc4)c(=O)c23)nn1 [DMA01-170, 2-(4-(3-((R)-1-(2-aminopyrazolo[1,5-a]pyrimidine-3-carboxamido)ethyl)-1-oxo-2-phenyl-1,2-dihydroisoquinolin-8-yl)-1H-1,2,3-triazol-1-yl)ethyl (9Z,12E)-octadeca-9,12-dienoate] | – | – | – | – | – | – | – | – | – | – | mild effects on increasing M1 percentage | – | – | – | – | showed macrophage polarization effects compared to M2 control group | –
5 | CCOC(=O)Cn1cc(-c2cccc3cc([C@H](C)NC(=O)c4c(N)nn5cccnc45)n(-c4ccccc4)c(=O)c23)nn1 [DMA01-132] | – | 374 | – | 372 | 0.845 | 0.381 | – | – | – | – | – | – | – | inhibited both PI3Kγ and PI3Kδ | inhibited both PI3Kγ and PI3Kδ | – | –
6 | C[C@@H](NC(=O)c1c(N)nn2cccnc12)c1cc2cccc(-c3cn(CCOC(=O)[C@H](N)Cc4cn(C)c5ccccc45)nn3)c2c(=O)n1-c1ccccc1 [DMA01-173, 2-(4-(3-((R)-1-(2-aminopyrazolo[1,5-a]pyrimidine-3-carboxamido)ethyl)-1-oxo-2-phenyl-1,2-dihydroisoquinolin-8-yl)-1H-1,2,3-triazol-1-yl)ethyl 1-methyl-D-tryptophanate] | – | – | – | – | – | – | did not stimulate STING activation | – | cannot enhance mIFNβ secretion | – | mild effects on increasing M1 percentage | – | – | – | – | showed macrophage polarization effects compared to M2 control group | did not stimulate DC activation
